# Reference: patent publication EP4759814A1, “TRICYCLIC COMPOUND AND USE THEREOF AS MAT2A INHIBITOR” (SK Biopharmaceuticals Co., Ltd., priority 2023, dated 2025)
# Legend:
# [1] = biological target: T1, MAT2A (Homo sapiens, UniProt P31153); assay: MAT2A inhibitory activity, colorimetric phosphate detection (PiColorLock) enzyme assay; format: biochemical; settings: Test Condition 1 or 2 (not stated which per compound); absorbance at 630 nm
# T1 construct: purchased BPS Bioscience (USA) 71401
# Description: In vitro assay: Methionine and adenosine triphosphate (ATP) are converted into S-adenosylmethionine (SAM) and inorganic phosphate (pi) via the catalytic action of methionine adenosyltransferase 2A (MAT2A). The produced pi is detected by the PiColorLock™ Phosphate Detection Reagent, which is a colorimetric assay, and the activity of MAT2A can be evaluated according to the amount of pi generated during the enzyme reaction. Each compound was evaluated under Test Condition 1 or 2 as described below.
# • Concentration of MAT2A inhibitor: maximum concentration of 50 µM, 5-fold dilution (7 groups in total) • MAT2A concentration: 12 ng/µL • ATP and Met concentration: 100 µM, 80 µM
# • Concentration of MAT2A inhibitor: maximum concentration of 1 µM, 3-fold dilution (7 groups in total) • MAT2A concentration: 4 ng/µL • ATP and Met concentration: 300 µM, 150 µM • Reagents: Methionine (catalog number M5308) and ATP (catalog number A2383) were purchased from Sigma-Aldrich (USA). MAT2A (catalog number 71401) was purchased from BPS Bioscience (USA), and PiColorLock™ Phosphate Detection Reagent (catalog number 303-0030) was purchased from Novus (USA).
# Assay buffer composition: 50 mM Tris-HCl pH 8.0, 50 mM KCI, 15 mM MgCl2, 0.3 mM EDTA, 0.005 % (w/v) BSA
# Experimental procedure: Each compound was diluted 5-fold or 3-fold based on the maximum concentration (5 mM or 1 mM or 0.1 mM) using DMSO. The diluted compounds were diluted 20-fold using assay buffer, and then mixed at a volume ratio of 1:2 with MAT2A (30 ng/µL or 10 ng/µL) diluted with assay buffer and treated for 30 minutes at room temperature. The negative control group is a group untreated with both the MAT2A enzyme and the compound according to an embodiment of the present application, and the positive control group is a group treated only with the MAT2A enzyme and untreated with the compound according to an embodiment of the present application.
# In each well of a 384-well plate, 30 µL of the mixed solution and 20 µL of a 1:1 mixed solution of ATP (0.5 mM or 1.5 mM) and Met (0.4 mM or 0.75 mM) were mixed and then treated for 1 hour at room temperature. After the enzyme reaction, 13 µL of a 100:1 mixed solution of PiColorLockTM and Accelerator was treated in each well and reacted for 5 minutes at room temperature. After treating 5 µL of Stabilizer in each well and reacting for 25 minutes at room temperature, the absorbance at 630 nm was measured using SpectraMax M4 (Molecular Devices, USA) to calculate the IC50 value of the compound.
# Analysis method: The enzyme activity (%) of each experimental group was calculated as {(average O.D. of compound-treated group - average O.D. of negative control group)/(average O.D. of positive control group - average O.D. of negative control group)} * 100. After preparing a dose-response curve (4-parameter) using the enzyme activity according to the treatment concentration of each compound in GraphPad Prism 9, the 50 % of enzyme inhibitory activity value (IC50) was calculated through non-linear regression analysis. The IC50 results measured for the MAT2A activity inhibitory ability of the compounds according to an embodiment of the present application are shown in Table 2 (+++: more than 1 to 100 nM, ++: more than 100 to 1,000 nM, +: more than 1,000 to 10,000 nM, -: more than 10,000 nM).
# [2] = test system: HCT116 (MTAP del) cell line; assay: Cell proliferation inhibition in MTAP-deficient cancer cells, WST-1 assay; format: cell-based; settings: Homo sapiens, HCT-116, 120 hours of drug treatment, maximum concentration 10 µM, read-out: HCT116 MTAP^-/- (IC50, cell proliferation inhibited by 50%)
# Description: (§1) The HCT116 (MTAP del) cell line, which is a colorectal cancer cell line with deletion of MTAP gene, was treated with a compound according to an embodiment of the present application as a MAT2A inhibitor, and after culturing for 120 hours, the change in the number of cells was measured with a WST-1 assay reagent. The WST-1 assay is an assay that measures the number of cells by measuring the generation of a chromogenic substance called formazan from tetrazolium salts by intracellular mitochondrial dehydrogenase. In addition, as a control group, a wild-type colorectal cancer HCT116 (MTAP WT) cell line containing the MTAP gene was used to perform the experiment in the same manner as the experimental group.
# (§2) Cell lines and reagents: HCT116 (MTAP WT (catalog number HD PAR-034), MTAP del (catalog number HD R02-033)) cell lines were purchased from Horizon Discovery (USA), and RPMI1640 medium (catalog number 22400-093), FBS (Fetal Bovine serum, catalog number 16000044), and Penicillin/Streptomycin (catalog number 15140-122) were purchased from GIBCO (USA). WST-1 (catalog number EZ-BULK150) was purchased from Dogen (Korea).
# (§3) Experimental procedure: HCT116 (MTAP WT, MTAP del) cell lines were dispensed into a 96-well plate at a concentration of 1,000 cells/well in RPMI1640 culture medium containing 10% FBS and 1% Penicillin/Streptomycin, and allowed to attach for 24 hours. When the cells were attached to the plate, the drug was diluted 4-fold from a maximum concentration of 10 µM and treated on the cells. After 120 hours of drug treatment, 20 µL of WST-1 solution was treated for 2 hours, and absorbance at 450 nm was measured using SpectraMax M4 (Molecular Devices). Data analysis was calculated by taking the DMSO control group value as 100%. For the IC50 value, the concentration at which cell proliferation is inhibited by 50% was calculated through interpolation using a 4-parameter fit of the dose-response curve using the GraphPad Prism 8.4.3 program. The cancer cell proliferation inhibitory ability and selectivity in MTAP-deficient cancer cells of the compounds according to an embodiment of the present application are described in Table 3 (+++: 1 to 100 nM, ++: more than 100 to 1,000 nM, +: more than 1 to 10 µM, -: more than 10 µM).
# [3] = test system: HCT116 (MTAP WT) cell line; assay: Cell proliferation inhibition in wild-type control cells, WST-1 assay; format: cell-based; settings: Homo sapiens, HCT-116, 120 hours of drug treatment, maximum concentration 10 µM, read-out: HCT116 WT (IC50, cell proliferation inhibited by 50%)
# Description: as §1, §2, §3
# T1 sequence (P31153 whole entry): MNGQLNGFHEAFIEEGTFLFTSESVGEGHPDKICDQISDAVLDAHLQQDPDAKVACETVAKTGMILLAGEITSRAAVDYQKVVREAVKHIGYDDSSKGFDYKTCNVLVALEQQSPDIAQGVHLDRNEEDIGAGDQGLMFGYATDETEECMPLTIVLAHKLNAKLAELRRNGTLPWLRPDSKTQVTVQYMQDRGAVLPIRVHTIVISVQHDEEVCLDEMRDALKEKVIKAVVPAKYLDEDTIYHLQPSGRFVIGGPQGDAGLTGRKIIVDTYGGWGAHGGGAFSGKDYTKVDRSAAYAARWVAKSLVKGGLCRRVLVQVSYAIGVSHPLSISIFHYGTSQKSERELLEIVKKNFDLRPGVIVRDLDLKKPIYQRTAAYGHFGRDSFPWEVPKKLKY
compound,measurement,setting,value
"Cc1c(F)cccc1-n1c(=O)c2nccn2c2ccc(OC(F)(F)F)cc21 [Example 15, 5-(3-fluoro-2-methylphenyl)-7-(trifluoromethoxy)imidazo[1,2-a]quinoxalin-4(5H)-one]",IC50,[1],1000 to 10000 nM
same,IC50,[2],100 to 1000 nM
same,IC50,[3],> 10000 nM
"Cc1ccccc1-n1c(=O)c2nccn2c2ccc(C3CC3)cc21 [Example 16, 7-cyclopropyl-5-(o-tolyl)imidazo[1,2-a]quinoxalin-4(5H)-one]",IC50,[1],100 to 1000 nM
same,IC50,[2],100 to 1000 nM
same,IC50,[3],> 10000 nM
"COc1ccc2c(c1)n(-c1ccccc1C)c(=O)c1nccn12 [Example 17, 7-methoxy-5-(o-tolyl)imidazo[1,2-a]quinoxalin-4(5H)-one]",IC50,[1],100 to 1000 nM
same,IC50,[2],100 to 1000 nM
same,IC50,[3],> 10000 nM
"Cc1ccccc1-n1c(=O)c2nccn2c2ccc(C#N)cc21 [Example 18, 4-oxo-5-(o-tolyl)-4,5-dihydroimidazo[1,2-a]quinoxalin-7-carbonitrile]",IC50,[1],1000 to 10000 nM
same,IC50,[2],1000 to 10000 nM
same,IC50,[3],> 10000 nM
"Cc1ccccc1-n1c(=O)c2nccn2c2ccc(OC(F)(F)F)cc21 [Example 19, 5-(o-tolyl)-7-(trifluoromethoxy)imidazo[1,2-a]quinoxalin-4(5H)-one]",IC50,[1],1000 to 10000 nM
same,IC50,[2],1000 to 10000 nM
same,IC50,[3],> 10000 nM
"Cc1ccccc1-n1c(=O)c2nccn2c2ccc(C(F)F)cc21 [Example 22, 7-(difluoromethyl)-5-(o-tolyl)imidazo[1,2-a]quinoxalin-4(5H)-one]",IC50,[1],1 to 100 nM
same,IC50,[2],1 to 100 nM
same,IC50,[3],> 10000 nM
"O=c1c2nccn2c2ccc(Cl)cc2n1-c1ccccc1Cl [Example 23, 7-chloro-5-(2-chlorophenyl)imidazo[1,2-a]quinoxalin-4(5H)-one]",IC50,[1],1 to 100 nM
same,IC50,[2],100 to 1000 nM
same,IC50,[3],> 10000 nM
"CC(=O)c1ccc2c(c1)n(-c1ccccc1C)c(=O)c1nccn12 [Example 24, 7-acetyl-5-(o-tolyl)imidazo[1,2-a]quinoxalin-4(5H)-one]",IC50,[1],100 to 1000 nM
same,IC50,[2],> 10000 nM
same,IC50,[3],> 10000 nM
"Cc1ccccc1-n1c(=O)c2nccn2c2ccc(I)cc21 [Example 25, 7-Iodo-5-(o-tolyl)imidazo[1,2-a]quinoxalin-4(5H)-one]",IC50,[1],1 to 100 nM
same,IC50,[2],1 to 100 nM
same,IC50,[3],100 to 1000 nM
"Cc1ccccc1-n1c(=O)c2nccn2c2ccc(C(F)(F)F)cc21 [Example 26, 5-(o-tolyl)-7-(trifluoromethyl)imidazo[1,2-a]quinoxalin-4(5H)-one]",IC50,[1],1 to 100 nM
same,IC50,[2],1 to 100 nM
same,IC50,[3],> 10000 nM
"Cc1c(F)cccc1-n1c(=O)c2nccn2c2ccc(C#N)cc21 [Example 27, 5-(3-fluoro-2-methylphenyl)-4-oxo-4,5-dihydroimidazo[1,2-a]quinoxalin-7-carbonitrile]",IC50,[1],100 to 1000 nM
same,IC50,[2],100 to 1000 nM
same,IC50,[3],> 10000 nM
"Cc1ccccc1-n1c(=O)c2nccn2c2ccc(OCC(F)(F)F)cc21 [Example 28, 5-(o-tolyl)-7-(2,2,2-trifluoroethoxy)imidazo[1,2-a]quinoxalin-4(5H)-one]",IC50,[1],> 10000 nM
same,IC50,[2],> 10000 nM
same,IC50,[3],> 10000 nM
"CCOc1ccc2c(c1)n(-c1ccccc1C)c(=O)c1nccn12 [Example 30, 7-ethoxy-5-(o-tolyl)imidazo[1,2-a]quinoxalin-4(5H)-one]",IC50,[1],> 10000 nM
same,IC50,[2],> 10000 nM
same,IC50,[3],> 10000 nM
"Cc1ccccc1-n1c(=O)c2nccn2c2ccc(Br)cc21 [Example 32, 7-bromo-5-(o-tolyl)imidazo[1,2-a]quinoxalin-4(5H)-one]",IC50,[1],1 to 100 nM
same,IC50,[2],1 to 100 nM
same,IC50,[3],1000 to 10000 nM
"Cc1ncccc1-n1c(=O)c2nccn2c2ccc(Cl)cc21 [Example 33, 7-chloro-5-(2-methylpyridin-3-yl)imidazo[1,2-a]quinoxalin-4(5H)-one]",IC50,[1],1 to 100 nM
same,IC50,[2],1 to 100 nM
same,IC50,[3],100 to 1000 nM
"Cc1ncccc1-n1c(=O)c2ncc(C)n2c2ccc(Cl)cc21 [Example 34, 7-chloro-1-methyl-5-(2-methylpyridin-3-yl)imidazo[1,2-a]quinoxalin-4(5H)-one]",IC50,[1],1 to 100 nM
same,IC50,[2],1 to 100 nM
same,IC50,[3],100 to 1000 nM
